System: 695427-040-R-J1-PDC complex spheroid viability
Assay: Anticancer human tumor 695427-040-R-J1-PDC patient-derived colon adenocarcinoma cell line growth inhibition [POLQ]
Conditions: for IC50: curve of first compound; for viability, T/C: stronger effect = lower value; active = viability on the fitted dose curve at most 10% of control; inactive = the rest
Method in brief: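 Patient-derived tumour cells were co-cultured with HUVEC and mesenchymal stem cells as multicellular spheroids at 37 °C. They were treated with POLQ inhibitors (novobiocin, ART-558, RP6685) alone or combined with other agents. Top concentrations were at or near clinical Cmax (otherwise 10 microM; SN-38 at 1 microM), decreasing in half-log steps.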

[1] = second compound 0.0316 µM, first compound 0.0316 µM
[2] = second compound 0.0316 µM, first compound 0.1 µM
[3] = second compound 0.0316 µM, first compound 0.316 µM
[4] = second compound 0.0316 µM, first compound 1 µM
[5] = second compound 0.0316 µM, first compound 3.16 µM
[6] = second compound 0.0316 µM, first compound 10 µM
[7] = second compound 0.1 µM, first compound 0.0316 µM
[8] = second compound 0.1 µM, first compound 0.1 µM
[9] = second compound 0.1 µM, first compound 0.316 µM
[10] = second compound 0.1 µM, first compound 1 µM
[11] = second compound 0.1 µM, first compound 3.16 µM
[12] = second compound 0.1 µM, first compound 10 µM
[13] = second compound 0.316 µM, first compound 0.0316 µM
[14] = second compound 0.316 µM, first compound 0.1 µM
[15] = second compound 0.316 µM, first compound 0.316 µM
[16] = second compound 0.316 µM, first compound 1 µM
[17] = second compound 0.316 µM, first compound 3.16 µM
[18] = second compound 0.316 µM, first compound 10 µM
[19] = second compound 1 µM, first compound 0.0316 µM
[20] = second compound 1 µM, first compound 0.1 µM
[21] = second compound 1 µM, first compound 0.316 µM
[22] = second compound 1 µM, first compound 1 µM
[23] = second compound 1 µM, first compound 3.16 µM
[24] = second compound 1 µM, first compound 10 µM
[25] = second compound 3.16 µM, first compound 0.0316 µM
[26] = second compound 3.16 µM, first compound 0.1 µM
[27] = second compound 3.16 µM, first compound 0.316 µM
[28] = second compound 3.16 µM, first compound 1 µM
[29] = second compound 3.16 µM, first compound 3.16 µM
[30] = second compound 3.16 µM, first compound 10 µM
[31] = second compound 10 µM, first compound 0.0316 µM
[32] = second compound 10 µM, first compound 0.1 µM
[33] = second compound 10 µM, first compound 0.316 µM
[34] = second compound 10 µM, first compound 1 µM
[35] = second compound 10 µM, first compound 3.16 µM
[36] = second compound 10 µM, first compound 10 µM
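Also: spheroids exposed to compounds for seven days.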
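For viability, T/C in this document: 100% = DMSO vehicle control viability.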

COc1cc(C2c3cc4c(cc3C(OC3OC5COC(C)OC5C(O)C3O)C3COC(=O)C23)OCO4)cc(OC)c1O (stereo not drawn) + COC1C(OC(N)=O)C(O)C(Oc2ccc3c(O)c(NC(=O)c4ccc(O)c(CC=C(C)C)c4)c(=O)oc3c2C)OC1(C)C
inactive: viability, T/C [1] 96.7% | viability, T/C [2] 92.3% | viability, T/C [3] 98.8% | viability, T/C [4] 96.2% | viability, T/C [5] 98.4% | viability, T/C [6] 82.4% | viability, T/C [7] 101% | viability, T/C [8] 93.4% | viability, T/C [9] 101% | viability, T/C [10] 93.8% | viability, T/C [11] 99.5% | viability, T/C [12] 83.6% | viability, T/C [13] 104% | viability, T/C [14] 92.3% | viability, T/C [15] 94.7% | viability, T/C [16] 97% | viability, T/C [17] 95.3% | viability, T/C [18] 80.6% | viability, T/C [19] 107% | viability, T/C [20] 98.5% | viability, T/C [21] 112% | viability, T/C [22] 100% | viability, T/C [23] 96.4% | viability, T/C [24] 83.7% | viability, T/C [25] 99.4% | viability, T/C [26] 98.3% | viability, T/C [27] 101% | viability, T/C [28] 101% | viability, T/C [29] 98.9% | viability, T/C [30] 82.8% | viability, T/C [31] 94.5% | viability, T/C [32] 95.2% | viability, T/C [33] 95.3% | viability, T/C [34] 99.9% | viability, T/C [35] 103% | viability, T/C [36] 83.2%
> 10 µM: IC50 (second compound 0.0316 µM) | IC50 (second compound 0.1 µM) | IC50 (second compound 0.316 µM) | IC50 (second compound 1 µM) | IC50 (second compound 3.16 µM) | IC50 (second compound 10 µM)

COc1cccc2c1C(=O)c1c(O)c3c(c(O)c1C2=O)CC(O)(C(=O)CO)CC3OC1CC(N)C(O)C(C)O1 (stereo not drawn) + COC1C(OC(N)=O)C(O)C(Oc2ccc3c(O)c(NC(=O)c4ccc(O)c(CC=C(C)C)c4)c(=O)oc3c2C)OC1(C)C
inactive: viability, T/C [1] 98.1% | viability, T/C [2] 96.5% | viability, T/C [3] 98% | viability, T/C [4] 74% | viability, T/C [5] 68.2% | viability, T/C [6] 54.5% | viability, T/C [7] 106% | viability, T/C [8] 95.2% | viability, T/C [9] 95.1% | viability, T/C [10] 74.4% | viability, T/C [11] 64% | viability, T/C [12] 51.5% | viability, T/C [13] 102% | viability, T/C [14] 91.6% | viability, T/C [15] 84% | viability, T/C [16] 79% | viability, T/C [17] 65.9% | viability, T/C [18] 48.6% | viability, T/C [19] 98.4% | viability, T/C [20] 95.1% | viability, T/C [21] 92.1% | viability, T/C [22] 81.1% | viability, T/C [23] 68.3% | viability, T/C [24] 50.3% | viability, T/C [25] 99.4% | viability, T/C [26] 98% | viability, T/C [27] 88.9% | viability, T/C [28] 75.7% | viability, T/C [29] 70.1% | viability, T/C [30] 54.5% | viability, T/C [31] 103% | viability, T/C [32] 90.5% | viability, T/C [33] 105% | viability, T/C [34] 87.3% | viability, T/C [35] 67.5% | viability, T/C [36] 55.8%
> 10 µM: IC50 (second compound 0.0316 µM) | IC50 (second compound 0.1 µM) | IC50 (second compound 0.316 µM) | IC50 (second compound 1 µM) | IC50 (second compound 3.16 µM) | IC50 (second compound 10 µM)

Nc1ccn(C2OC(CO)C(O)C2(F)F)c(=O)n1 (stereo not drawn) + COC1C(OC(N)=O)C(O)C(Oc2ccc3c(O)c(NC(=O)c4ccc(O)c(CC=C(C)C)c4)c(=O)oc3c2C)OC1(C)C
> 10 µM: IC50 (second compound 0.0316 µM) | IC50 (second compound 0.1 µM) | IC50 (second compound 0.316 µM) | IC50 (second compound 1 µM) | IC50 (second compound 3.16 µM) | IC50 (second compound 10 µM)
inactive: viability, T/C [1] 82% | viability, T/C [2] 81.5% | viability, T/C [3] 75.1% | viability, T/C [4] 72.2% | viability, T/C [5] 63.9% | viability, T/C [6] 55.2% | viability, T/C [7] 91.1% | viability, T/C [8] 82.6% | viability, T/C [9] 73.1% | viability, T/C [10] 70% | viability, T/C [11] 68.3% | viability, T/C [12] 50.5% | viability, T/C [13] 96.2% | viability, T/C [14] 78.5% | viability, T/C [15] 76.6% | viability, T/C [16] 70.2% | viability, T/C [17] 63.5% | viability, T/C [18] 47.6% | viability, T/C [19] 92% | viability, T/C [20] 84% | viability, T/C [21] 71.8% | viability, T/C [22] 70% | viability, T/C [23] 62.5% | viability, T/C [24] 48.6% | viability, T/C [25] 89.2% | viability, T/C [26] 81.9% | viability, T/C [27] 72.5% | viability, T/C [28] 67% | viability, T/C [29] 63.2% | viability, T/C [30] 52.1% | viability, T/C [31] 93.1% | viability, T/C [32] 82.3% | viability, T/C [33] 75.3% | viability, T/C [34] 73.1% | viability, T/C [35] 66.4% | viability, T/C [36] 52.1%

O=C(c1cc(Cc2n[nH]c(=O)c3ccccc23)ccc1F)N1CCN(C(=O)C2CC2)CC1 + COC1C(OC(N)=O)C(O)C(Oc2ccc3c(O)c(NC(=O)c4ccc(O)c(CC=C(C)C)c4)c(=O)oc3c2C)OC1(C)C
inactive: viability, T/C [1] 115% | viability, T/C [2] 106% | viability, T/C [3] 105% | viability, T/C [4] 105% | viability, T/C [5] 110% | viability, T/C [6] 97.9% | viability, T/C [7] 108% | viability, T/C [8] 108% | viability, T/C [9] 108% | viability, T/C [10] 105% | viability, T/C [11] 111% | viability, T/C [12] 96.3% | viability, T/C [13] 110% | viability, T/C [14] 96.9% | viability, T/C [15] 105% | viability, T/C [16] 104% | viability, T/C [17] 114% | viability, T/C [18] 108% | viability, T/C [19] 110% | viability, T/C [20] 105% | viability, T/C [21] 104% | viability, T/C [22] 106% | viability, T/C [23] 117% | viability, T/C [24] 101% | viability, T/C [25] 97.1% | viability, T/C [26] 96.7% | viability, T/C [27] 94.3% | viability, T/C [28] 108% | viability, T/C [29] 117% | viability, T/C [30] 112% | viability, T/C [31] 103% | viability, T/C [32] 103% | viability, T/C [33] 115% | viability, T/C [34] 107% | viability, T/C [35] 114% | viability, T/C [36] 97%
> 10 µM: IC50 (second compound 0.0316 µM) | IC50 (second compound 0.1 µM) | IC50 (second compound 0.316 µM) | IC50 (second compound 1 µM) | IC50 (second compound 3.16 µM) | IC50 (second compound 10 µM)
